In US7645781B2, “N-aryl-2-oxazolidinone-5-carboxamides and their derivatives” (Pfizer Inc, priority 2002, dated 2010):
≈ marks a conversion by molar mass, not a printed value.

Assays:
[1] = test system: Staphylococcus aureus (SAUR 9213); experiment: MIC by standard agar dilution method; assay type: cell-based; conditions: Mueller Hinton agar, incubated overnight at 35° C., read-out: MIC
Text: The antibacterial agents of this invention have useful activity against a variety of organisms. The in vitro activity of compounds of this invention can be assessed by standard testing procedures such as the determination of minimum inhibitory concentration (MIC) by agar dilution as described in “Approved Standard. Methods for Dilution Antimicrobial Susceptibility Tests for Bacteria That Grow Aerobically”, 3rd. ed., published 1993 by the National Committee for Clinical Laboratory Standards, Villanova, Pa., USA. The in vitro MICs of test compounds are determined by a standard agar dilution method. A stock drug solution of each analog is prepared in the preferred solvent, usually DMSO:H2O (1:3). Serial 2-fold dilutions of each sample are made using 1.0 ml aliquots of sterile distilled water. To each 1.0 ml aliquot of drug is added 9 ml of molten Mueller Hinton agar medium. The drug-supplemented agar is mixed, poured into 15×100 mm petri dishes, and allowed to solidify and dry prior to inoculation. Vials of each of the test organisms are maintained frozen in the vapor phase of a liquid nitrogen freezer. Test cultures are grown overnight at 35° C. on the medium appropriate for the organism. Colonies are harvested with a sterile swab, and cell suspensions are prepared in Trypticase Soy broth (TSB) to equal the turbidity of a 0.5 McFarland standard. A 1:20 dilution of each suspension is made in TSB. The plates containing the drug supplemented agar are inoculated with a 0.001 ml drop of the cell suspension using a Steers replicator, yielding approximately 10^4 to 10^5 cells per spot. The plates are incubated overnight at 35° C. Following incubation the Minimum Inhibitory Concentration (MIC μg/ml), the lowest concentration of drug that inhibits visible growth of the organism, is read and recorded.

Row | SMILES | melting point | MIC [1]
1 | NC(=O)[C@H]1CN(c2cc(F)c(N3CCOCC3)c(F)c2)C(=O)O1 [Example 17, (5R)-(−)-3-[3,5-Difluoro-4-(4-morpholinyl)phenyl]-2-oxo-5-oxazolidinecarboxamide] | 181 to 183 °C | 4 µg/mL (≈ 12.2 µM)
2 | NC(=O)[C@H]1CN(c2ccc(N3CCS(=O)(=O)CC3)c(F)c2)C(=O)O1 [Example 20, (5R)-(−)-3-[3-Fluoro-4-(thiomorpholin-4-yl)phenyl]-2-oxo-5-oxazolidinecarboxamide S,S-dioxide] | 245 to 247 °C (dec.) | 4 µg/mL (≈ 11.2 µM)
3 | NC(=O)[C@H]1CN(c2ccc(-c3ccncc3)c(F)c2)C(=O)O1 [Example 8, (5R)-(−)-3-[4-(4-Pyridyl)-3-fluorophenyl]-2-oxo-5-oxazolidinecarboxamide] | 256 to 259 °C (dec.) | 1 µg/mL (≈ 3.32 µM)
4 | CONC(=O)[C@H]1CN(c2ccc(N3CCOCC3)c(F)c2)C(=O)O1 [Example 5, (5R)-(−)-3-[3-Fluoro-4-(4-morpholinyl)phenyl]-N-methoxy-2-oxo-5-oxazolidinecarboxamide] | 206 to 208 °C (dec.) | 16 µg/mL (≈ 47.2 µM)
5 | NC(=O)[C@H]1CN(c2cc(F)c(N3CCS(=O)(=O)CC3)c(F)c2)C(=O)O1 [Example 15, (5R)-(−)-3-[4-(Thiomorpholin-4-yl)-3,5-difluorophenyl]-2-oxo-5-oxazolidinecarboxamide S,S-dioxide] | 245 to 248 °C (dec.) | 2 µg/mL (≈ 5.33 µM)
6 | NC(=O)[C@H]1CN(c2ccc([C@H]3CC[S@@+]([O-])CC3)c(F)c2)C(=O)O1 [Example 23, (5R)-3-[3-Fluoro-4-(cis-tetrahydro-1-oxido-2H-thiopyran-4-yl)phenyl]-2-oxo-5-oxazolidinecarboxamide] | 279 to 281 °C (dec.) | 4 µg/mL (≈ 11.8 µM)
7 | CNC(=O)[C@H]1CN(c2ccc(N3CCOCC3)c(F)c2)C(=O)O1 [Example 2, (5R)-(−)-3-[3-Fluoro-4-(4-morpholinyl)phenyl]-N-methyl-2-oxo-5-oxazolidinecarboxamide] | 182 to 183 °C (dec.) | 8 µg/mL (≈ 24.7 µM)
8 | NC(=O)[C@H]1CN(c2ccc([C@H]3CC[S@+]([O-])CC3)cc2)C(=O)O1 [Example 27, (5R)-3-[4-(trans-tetrahydro-1-oxido-2H-thiopyran-4-yl)phenyl]-2-oxo-5-oxazolidinecarboxamide] | 174 to 175 °C | 8 µg/mL (≈ 24.8 µM)
9 | NC(=O)[C@H]1CN(c2ccc(N3CCS(=O)(=O)CC3)cc2)C(=O)O1 [Example 18, (5R)-(−)-3-[4-(Thiomorpholin-4-yl)phenyl]-2-oxo-5-oxazolidinecarboxamide S,S-dioxide] | 226 to 228 °C | 16 µg/mL (≈ 47.1 µM)
10 | CNC(=O)[C@H]1CN(c2ccc3c(c2)sc(=O)n3C)C(=O)O1 [Example 32, (5R)-(−)-N-Methyl-3-(2,3-dihydro-3-methyl-2-oxo-6-benzothiazolyl)-2-oxo-5-oxazolidinecarboxamide] | 264 to 267 °C | 1 µg/mL (≈ 3.25 µM)
11 | NC(=O)[C@H]1CN(c2ccc(C3=CCOCC3)c(F)c2)C(=O)O1 [Example 9, (5R)-(−)-3-[4-(3,6-Dihydro-2H-pyran-4-yl)-3-fluorophenyl]-2-oxo-5-oxazolidinecarboxamide] | 164 to 169 °C | 4 µg/mL (≈ 13.1 µM)
12 | CC(C)n1c(=O)sc2cc(N3C[C@H](C(N)=O)OC3=O)ccc21 [Example 31, (5R)-(−)-3-(2,3-Dihydro-3-isopropyl-2-oxo-6-benzothiazolyl)-2-oxo-5-oxazolidinecarboxamide] | 183 to 184.5 °C | 1 µg/mL (≈ 3.11 µM)
13 | CCNC(=O)[C@H]1CN(c2ccc3c(c2)sc(=O)n3C)C(=O)O1 [Example 33, (5R)-(−)-N-Ethyl-3-(2,3-dihydro-3-methyl-2-oxo-6-benzothiazolyl)-2-oxo-5-oxazolidinecarboxamide] | 224.5 to 226 °C | 4 µg/mL (≈ 12.4 µM)
14 | NC(=O)[C@H]1CN(c2cc(F)c(N3CC[S+]([O-])CC3)c(F)c2)C(=O)O1 [Example 22, (5R)-(−)-3-[3,5-Difluoro-4-(thiomorpholin-4-yl)phenyl]-2-oxo-5-oxazolidinecarboxamide S-oxide] | 273 to 276 °C (dec.) | 4 µg/mL (≈ 11.1 µM)
15 | NC(=O)[C@H]1CN(c2ccc(N3CCOCC3)c(F)c2)C(=O)O1 [Example 1, (5R)-(−)-3-[3-Fluoro-4-(4-morpholinyl)phenyl]-2-oxo-5-oxazolidinecarboxamide] | 185 to 187 °C (dec.) | 4 µg/mL (≈ 12.9 µM)
16 | NC(=O)[C@H]1CN(c2ccc([C@H]3CC[S@+]([O-])CC3)c(F)c2)C(=O)O1 [Example 24, (5R)-3-[3-Fluoro-4-(trans-tetrahydro-1-oxido-2H-thiopyran-4-yl)phenyl]-2-oxo-5-oxazolidinecarboxamide] | 201 to 203 °C | 2 µg/mL (≈ 5.88 µM)

Second part, the compound after the results:

Row | melting point | MIC [1] | SMILES
17 | 257 °C (dec.) | 0.5 µg/mL (≈ 1.46 µM) | NC(=O)[C@H]1CN(c2ccc(N3Cc4cccnc4C3)c(F)c2)C(=O)O1 [Example 54, (5R)-3-[4-(5,7-Dihydro-6H-pyrrolo[3,4-b]pyridin-6-yl)-3-fluorophenyl]-2-oxo-5-oxazolidinecarboxamide]
18 | 201 to 203 °C | 2 µg/mL (≈ 5.89 µM) | Cn1c(=O)sc2cc(N3C[C@H](C(=O)NCCF)OC3=O)ccc21 [Example 35, (5R)-N-(2-Fluoroethyl)-3-(2,3-dihydro-3-methyl-2-oxo-6-benzothiazolyl)-2-oxo-5-oxazolidinecarboxamide]
19 | 263 to 265 °C | 2 µg/mL (≈ 6.55 µM) | CCn1c(=O)oc2cc(N3C[C@H](C(=O)NC)OC3=O)ccc21 [Example 52, (5R)-(−)-N-Methyl-3-(2,3-dihydro-3-ethyl-2-oxo-6-benzoxazolyl)-2-oxo-5-oxazolidinecarboxamide]
20 | 304 to 306 °C | 2 µg/mL (≈ 6.87 µM) | CNC(=O)[C@H]1CN(c2ccc3c(c2)oc(=O)n3C)C(=O)O1 [Example 51, (5R)-(−)-N-Methyl-3-(2,3-dihydro-3-methyl-2-oxo-6-benzoxazolyl)-2-oxo-5-oxazolidinecarboxamide]
21 | 227 to 229 °C | 2 µg/mL (≈ 6.22 µM) | CCn1c(=O)sc2cc(N3C[C@H](C(=O)NC)OC3=O)ccc21 [Example 36, (5R)-(−)-N-Methyl-3-(2,3-dihydro-3-ethyl-2-oxo-6-benzothiazolyl)-2-oxo-5-oxazolidinecarboxamide]
22 | 249 to 251 °C | 0.5 µg/mL (≈ 1.48 µM) | NC(=O)[C@H]1CN(c2ccc(C3=NNC(=O)CS3)c(F)c2)C(=O)O1 [Example 64, (5R)-3-[3-Fluoro-4-(5-oxo-5,6-dihydro-4H-[1,3,4]thiadiazin-2-yl)phenyl]-2-oxo-5-oxazolidinecarboxamide]
23 | 243 to 245 °C | 4 µg/mL (≈ 10.7 µM) | NC(=O)[C@H]1CN(c2cc(F)c(C3CCS(=O)(=O)CC3)c(F)c2)C(=O)O1 [Example 45, (5R)-3-[3,5-Difluoro-4-(Tetrahydro-2H-thiopyran-4-yl)phenyl]-2-oxo-5-oxazolidinecarboxamide S,S-dioxide]
24 | 179 to 181 °C | 4 µg/mL (≈ 11.7 µM) | CNC(=O)[C@H]1CN(c2cc(F)c(N3CCOCC3)c(F)c2)C(=O)O1 [Example 42, (5R)-(−)-N-Methyl-3-[3,5-difluoro-4-(4-morpholinyl)phenyl]-2-oxo-5-oxazolidinecarboxamide]
25 | 180.5 to 182 °C | 2 µg/mL (≈ 5.4 µM) | CNC(=O)[C@H]1CN(c2ccc(C3CCS(=O)(=O)CC3)c(F)c2)C(=O)O1 [Example 41, (5R)-(−)-N-Methyl-3-[4-(Tetrahydro-2H-thiopyran-4-yl)-3-fluorophenyl]-2-oxo-5-oxazolidinecarboxamide S,S-dioxide]
26 | 234 to 236 °C | 1 µg/mL (≈ 3.43 µM) | CCn1c(=O)oc2cc(N3C[C@H](C(N)=O)OC3=O)ccc21 [Example 39, (5R)-(−)-3-(2,3-Dihydro-3-ethyl-2-oxo-6-benzoxazolyl)-2-oxo-5-oxazolidinecarboxamide]
27 | 237 to 241 °C | 4 µg/mL (≈ 10.7 µM) | CNC(=O)[C@H]1CN(c2cc(F)c(N3CC[S+]([O-])CC3)c(F)c2)C(=O)O1 [Example 43, (5R)-(−)-N-Methyl-3-[3,5-difluoro-4-(thiomorpholin-4-yl)phenyl]-2-oxo-5-oxazolidinecarboxamide S-oxide]
28 | 228 to 230 °C | 8 µg/mL (≈ 27.7 µM) | C[C@@H]1Cc2cc(N3C[C@H](C(N)=O)OC3=O)ccc2N1C=O [Example 49, (5R)-3-[(2R)-2,3-Dihydro-1-formyl-2-methyl-1H-indol-5-yl]-2-oxo-5-oxazolidinecarboxamide]
29 | 264 to 265 °C | 2 µg/mL (≈ 6.22 µM) | CNC(=O)[C@H]1CN(c2cc(F)c3c(c2)CCC(=O)N3C)C(=O)O1 [Example 83, (5R)-N-Methyl-3-(8-fluoro-1-methyl-2-oxo-1,2,3,4-tetrahydroquinolin-6-yl)-2-oxo-5-oxazolidinecarboxamide]
